Results from patent publication US9133235B2, “Macrocyclic antagonists of the motilin receptor for treatment of gastrointestinal dysmotility disorders” (Ocera Therapeutics, Inc., priority 2006, dated 2015).
pIC50, pKi: −log10 of the molar value.

Assays:
human motilin receptor [1] = biological target: T1, human motilin receptor (Homo sapiens, UniProt O43193); experiment: Aequorin functional assay (motilin receptor); format: cell-based; parameters: host or cells: CHO-K1 cells co-expressing Gα16 and mitochondrially targeted Aequorin; conditions: for pIC50: functional activity, antagonist testing vs motilin 0.5 nM (EC80)
Experimental: B. Aequorin Functional Assay (Motilin Receptor)
The evaluation of compounds of the invention for functional activity can be conducted according to literature methods or as described below. (Carreras, C. W.; Siani, M. A.; Santi, D. V.; Dillon, S. B. Anal. Biochem. 2002, 300, 146-151.)
• Membranes were prepared using AequoScreen™ (EUROSCREEN, Belgium) cell lines expressing the human motilin receptor (cell line ES-380-A; receptor accession #AF034632). This cell line is constructed by transfection of the human motilin receptor into CHO-K1 cells co-expressing Gα16 and the mitochondrially targeted Aequorin (Ref. #ES-WT-A5). • Motilin (Bachem, #H-4385) • Assay buffer: DMEM-F12 (Dulbeccoe's Modified Eagles Medium) with 15 mM HEPES and 0.1% BSA (pH 7.0) • Coelenterazine (Molecular Probes™, Leiden, The Netherlands) Final Test Concentrations (N=5) for Compounds: • 10, 3.16, 1.0, 0.316, 0.10 μM. Compound Handling:
Compounds were provided as dry films at a quantity of approximately 1.2 μmol in pre-formatted 96-well plates. Compounds were dissolved in 100% DMSO at a concentration of 10 mM and stored at −20° C. until further use. Daughter plates were prepared at a concentration of 500 μM in 30% DMSO with 0.1% BSA and stored at −20° C. until testing. On the test day, compounds were allowed to thaw at room temperature and than diluted in assay buffer according to the desired test concentrations. Under these conditions, the maximum final DMSO concentration in the assay was 0.6%.
Cells are collected from culture plates with Ca^2+ and Mg^2+-free phosphate buffered saline (PBS) supplemented with 5 mM EDTA, pelleted for 2 minutes at 1000×g, resuspended in assay buffer (see above) at a density of 5×10^6 cells/mL and incubated overnight in the presence of 5 μM coelenterazine. After loading, cells were diluted with assay buffer to a concentration of 5×10^5 cells/mL.
For agonist testing, 50 μL of the cell suspension was mixed with 50 μL of the appropriate concentration of test compound or motilin (reference agonist) in 96-well plates (duplicate samples). The emission of light resulting from receptor activation was recorded using the Functional Drug Screening System 6000 ‘FDSS 6000’ (Hamamatsu Photonics K. K., Japan).
For antagonist testing, an approximate EC80 concentration of motilin (i.e. 0.5 nM; 100 μL) was injected onto the cell suspension containing the test compounds (duplicate samples) 15-30 minutes after the end of agonist testing and the consequent emission of light resulting from receptor activation was measured as described in the paragraph above.
Results are expressed as Relative Light Units (RLU). Concentration response curves were analyzed using GraphPad™ Prism® (GraphPad Software, San Diego, Calif.) by non-linear regression analysis (sigmoidal dose-response) based on the equation E=Emax/(1+EC50/C)n where E is the measured RLU value at a given agonist concentration (C), Emax is the maximal response, EC50 is the concentration producing 50% stimulation and n is the slope index. For agonist testing, results for each concentration of test compound were expressed as percent activation relative to the signal induced by motilin at a concentration equal to the EC80 (i.e. 0.5 nM). For antagonist testing, results for each concentration of test compound were expressed as percent inhibition relative to the signal induced by motilin at a concentration equal to the EC80 (i.e. 0.5 nM).

human motilin receptor [2] = biological target: T1, human motilin receptor; experiment: Competitive radioligand binding assay (motilin receptor); parameters: purchased PerkinElmer (SignalScreen) 6110544; host or cells: CHO cells, stably transfected; membranes; conditions: [125I]-motilin competition, membranes of CHO cells with human motilin receptor; read-out: Ki
Experimental: A. Competitive Radioligand Binding Assay (Motilin Receptor)
The competitive binding assay at the human motilin receptor was carried out analogously to assays described in the literature.
• Membranes were prepared from CHO cells stably transfected with the human motilin receptor and utilized at a quantity of 1.5 μg/assay point. [PerkinElmer™ SignalScreen Product #6110544] • [^125I]-Motilin (PerkinElmer, #NEX-378); final concentration: 0.04-0.06 nM • Motilin (Bachem™, #H-4385); final concentration: 1 μM • Multiscreen Harvest plates-GF/B (Millipore™, #MAHFB1H60) • Deep-well polypropylene titer plate (Beckman Coulter™, #267006) • TopSeal-A (PerkinElmer, #6005185) • Bottom seal (Millipore, #MATAH0P00) • MicroScint-0 (PerkinElmer, #6013611) • Binding Buffer: 50 mM Tris-HCl (pH 7.4), 10 mM MgCl2, 1 mM EDTA, 0.1% BSA Assay Volumes: • 150 μL of membranes diluted in binding buffer • 10 μL of compound diluted in binding buffer • 10 μL of radioligand ([^125I]-Motilin) diluted in binding buffer Final Test Concentrations (N=11) for Compounds: • 10, 5.0, 2.0, 1.0, 0.50, 0.20, 0.10, 0.050, 0.020, 0.010, 0.0050 μM. Compound Handling:
Compounds were provided frozen on dry ice at a stock concentration of 10 mM diluted in 100% DMSO and stored at −20° C. until the day of testing. On the test day, compounds were allowed to thaw at room temperature and than diluted in assay buffer according to the desired test concentrations. Under these conditions, the maximum final DMSO concentration in the assay was 0.5%.
In deep-well plates, diluted cell membranes (1.5 μg/mL) are combined with 10 μL of either binding buffer (total binding, N=5), 1 μM motilin (non-specific binding, N=3) or the appropriate concentration of test compound. The reaction is initiated by addition of 10 μL of [^125I]-motilin (final conc. 0.04-0.06 nM) to each well. Plates are sealed with TopSeal-A, vortexed gently and incubated at room temperature for 2 hours. The reaction is arrested by filtering samples through pre-soaked (0.3% polyethyleneimine, 2 h) Multiscreen Harvest plates using a Tomtec Harvester, washed 9 times with 500 μL of cold 50 mM Tris-HCl (pH 7.4), and than plates are air-dried in a fumehood for 30 minutes. A bottom seal is applied to the plates prior to the addition of 25 μL of MicroScint-0 to each well. Plates are than sealed with TopSeal-A and counted for 30 sec per well on a TopCount Microplate Scintillation and Luminescence Counter (PerkinElmer) where results are expressed as counts per minute (cpm).
Data are analyzed by GraphPad™ Prism® (GraphPad Software, San Diego, Calif.) using a variable slope non-linear regression analysis.
[formula] where total and non-specific binding represent the cpm obtained in the absence or presence of 1 μM motilin, respectively.

T1 sequence (O43193 whole entry): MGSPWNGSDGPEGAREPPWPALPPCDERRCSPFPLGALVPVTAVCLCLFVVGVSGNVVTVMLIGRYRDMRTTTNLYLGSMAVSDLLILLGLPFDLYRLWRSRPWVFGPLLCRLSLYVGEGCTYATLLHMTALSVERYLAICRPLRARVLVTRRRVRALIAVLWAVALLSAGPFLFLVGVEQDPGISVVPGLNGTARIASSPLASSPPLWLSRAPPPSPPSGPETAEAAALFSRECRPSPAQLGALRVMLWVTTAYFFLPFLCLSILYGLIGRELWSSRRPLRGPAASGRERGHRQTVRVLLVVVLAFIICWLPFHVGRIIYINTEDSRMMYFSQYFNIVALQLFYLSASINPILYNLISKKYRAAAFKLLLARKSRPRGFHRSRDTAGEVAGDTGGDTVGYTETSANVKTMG

Row | Structure (SMILES) | pIC50 (human motilin receptor [1]) | pKi (human motilin receptor [2]) | approximate EC80 concentration (human motilin receptor [1]; reference agonist)
1 | CC(C)[C@H]1NC(=O)[C@@H](Cc2cccc(C(F)(F)F)c2)NCCOc2ccccc2CCCNC(=O)[C@H](CNC(=N)N)NC1=O [Compound 503] | ≥ 7.00 |  | 
2 | CC(C)[C@H]1NC(=O)[C@@H](Cc2cccc(C(F)(F)F)c2)NCCOc2ccccc2C[C@@H](C)CNC(=O)[C@H](CNC(=N)N)NC1=O [Compound 504] | ≥ 7.00 | ≥ 7.00 | 
3 | CCC[C@@H]1NC(=O)[C@@H](C(C)C)NC(=O)[C@@H](Cc2cccc(F)c2)N[C@H](C)COc2ccccc2CCCNC1=O [Compound 513] | ≥ 7.00 | ≥ 7.00 | 
4 | CC(C)[C@H]1NC(=O)[C@@H](Cc2cccc(Cl)c2)N[C@@H](C)COc2ccccc2CCCNC(=O)[C@H](CNC(=N)N)NC1=O [Compound 516] | ≥ 7.00 |  | 
5 | CC(C)[C@H]1NC(=O)[C@@H](Cc2cccc(F)c2)N[C@@H](C)COc2ccccc2CCCNC(=O)[C@H](CN(C)C)NC1=O [Compound 529] | ≥ 8.00 | ≥ 8.00 | 
6 | CC(C)[C@H]1NC(=O)[C@@H](Cc2cccc(C(F)(F)F)c2)NCCOc2ccccc2CCCNC(=O)[C@H](CN2CCCC2)NC1=O [Compound 532] | ≥ 7.00 | ≥ 8.00 | 
7 | CC(C)[C@H]1NC(=O)[C@@H](Cc2cccc(F)c2)N[C@@H](C)COc2ccccc2CCCNC(=O)[C@H](CN2CCCC2)NC1=O [Compound 533] | ≥ 8.00 | ≥ 7.00 | 
8 | CC(C)[C@H]1NC(=O)[C@@H](Cc2cccc(F)c2)N[C@@H](C)COc2ccccc2CCCNC(=O)[C@H](CN2CCOCC2)NC1=O [Compound 534] | ≥ 8.00 | ≥ 7.00 | 
9 | CC(C)[C@H]1NC(=O)[C@@H](Cc2cccc(F)c2)N[C@@H](C)COc2ccccc2CCCNC(=O)[C@H](CNc2ncccn2)NC1=O [Compound 535] | ≥ 8.00 | ≥ 7.00 | 
10 | Cc1cnnn1C[C@@H]1NC(=O)[C@@H](C(C)C)NC(=O)[C@@H](Cc2cccc(F)c2)N[C@@H](C)COc2ccccc2CCCNC1=O [Compound 536] | ≥ 7.00 | ≥ 7.00 | 
11 | CC(C)[C@H]1NC(=O)[C@@H](Cc2cccc(C(F)(F)F)c2)NCCOc2ccccc2CCCNC(=O)[C@H](CN)NC1=O [Compound 542] | ≥ 8.00 | ≥ 7.00 | 
12 | CC(C)[C@H]1NC(=O)[C@@H](Cc2cccc(F)c2)N[C@@H](C)COc2ccccc2CCCNC(=O)[C@H](CN)NC1=O [Compound 543] | ≥ 7.00 | ≥ 7.00 | 
13 | CNC[C@@H]1NC(=O)[C@@H](C(C)C)NC(=O)[C@@H](Cc2cccc(C(F)(F)F)c2)NCCOc2ccccc2CCCNC1=O [Compound 547] | ≥ 8.00 | ≥ 8.00 | 
14 | CNC[C@@H]1NC(=O)[C@@H](C(C)C)NC(=O)[C@@H](Cc2cccc(F)c2)N[C@@H](C)COc2ccccc2CCCNC1=O [Compound 548] | ≥ 8.00 | ≥ 8.00 | 
15 | CC[C@H](C)[C@H](NC(=O)[C@@H]1CCCN1C(=O)[C@@H](NC(=O)[C@@H](N)Cc1ccccc1)C(C)C)C(=O)N[C@@H](Cc1ccccc1)C(=O)N[C@H](C(=O)N[C@@H](Cc1ccc(O)cc1)C(=O)NCC(=O)N[C@@H](CCC(=O)O)C(=O)N[C@@H](CC(C)C)C(=O)N[C@@H](CCC(N)=O)C(=O)N[C@@H](CCCNC(=N)N)C(=O)N[C@@H](CCSC)C(=O)N[C@@H](CCC(N)=O)C(=O)N[C@@H](CCC(=O)O)C(=O)N[C@@H](CCCCN)C(=O)N[C@@H](CCC(=O)O)C(=O)N[C@@H](CCCNC(=N)N)C(=O)N[C@@H](CC(N)=O)C(=O)N[C@@H](CCCCN)C(=O)NCC(=O)N[C@@H](CCC(N)=O)C(=O)O)[C@@H](C)O [motilin] |  |  | ~0.0005 µM

Second part, led by results:

Row | pIC50 (human motilin receptor [1]) | pKi (human motilin receptor [2]) | Structure (SMILES) | approximate EC80 concentration (human motilin receptor [1]; reference agonist)
16 | ≥ 8.00 | ≥ 8.00 | CC(C)[C@H]1NC(=O)[C@@H](Cc2cccc(C(F)(F)F)c2)NCCOc2ccccc2C[C@H](C)CNC(=O)[C@H](CNC(=N)N)NC1=O [Compound 505] | 
17 | ≥ 9.00 | ≥ 8.00 | CC(C)[C@H]1NC(=O)[C@@H](Cc2cccc(C(F)(F)F)c2)NCCOc2ccccc2CCCNC(=O)[C@H](CN=[N+]=[N-])NC1=O [Compound 537] | 
18 | ≥ 9.00 | ≥ 8.00 | CC(C)[C@H]1NC(=O)[C@@H](Cc2cccc(F)c2)N[C@@H](C)COc2ccccc2CCCNC(=O)[C@H](CN=[N+]=[N-])NC1=O [Compound 538] | 
19 | ≥ 9.00 | ≥ 8.00 | CC(C)[C@H]1NC(=O)[C@@H](Cc2cccc(C(F)(F)F)c2)NCCOc2ccccc2CCCNC(=O)[C@H](Cn2cccc2)NC1=O [Compound 539] | 
20 | ≥ 9.00 | ≥ 8.00 | CC(C)[C@H]1NC(=O)[C@@H](Cc2cccc(F)c2)N[C@@H](C)COc2ccccc2CCCNC(=O)[C@H](Cn2cccc2)NC1=O [Compound 540] | 
21 | ≥ 9.00 | ≥ 8.00 | CC(C)[C@H]1NC(=O)[C@@H](Cc2cccc(F)c2)N[C@@H](C)COc2ccccc2C[C@H](C)CNC(=O)[C@H](CN)NC1=O [Compound 544] | 
22 | ≥ 9.00 | ≥ 8.00 | CC(C)[C@H]1NC(=O)[C@@H](Cc2cccc(F)c2)N[C@@H](C)COc2ccccc2C[C@H](C)CNC(=O)[C@H](CN=[N+]=[N-])NC1=O [Compound 545] | 
23 | ≥ 9.00 | ≥ 8.00 | CNC[C@@H]1NC(=O)[C@@H](C(C)C)NC(=O)[C@@H](Cc2cccc(F)c2)N[C@@H](C)COc2ccccc2C[C@H](C)CNC1=O [Compound 546] | 
24 | ≥ 9.00 | ≥ 8.00 | CC(C)[C@H]1NC(=O)[C@@H](Cc2cccc(F)c2)N[C@@H](C)COc2ccccc2C[C@H](C)CNC(=O)[C@H](CNc2ncccn2)NC1=O [Compound 550] | 
25 | ≥ 9.00 | ≥ 8.00 | C[C@H]1COc2ccccc2CCCNC(=O)[C@H](CC2CC2)NC(=O)[C@@H](C2CC2)NC(=O)[C@@H](Cc2cccc(F)c2)N1 [Compound 555] | 
